# How the values were obtained:
# Format in all cases: in vivo
# cotton, variety D&PL 555 [1] = assay: % terminal control of cotton plants, field trial
# Experimental: (§1) The trial was performed on cotton, variety D&PL 555. The formulated test compounds were diluted to the appropriate concentrations with water to which a crop oil concentrate (1% to 2% v/v) or a non-ionic surfactant (0.25% v/v) was added. The application of the test composition as a cotton plant growth regulator was performed using pressurized, over-the-top spray equipment consisting of a research scale boom sprayer. Deposit of the test composition was primarily to the top of the cotton plants, minimizing spray deposition to lower branches, leaves and fruit. The finished spray volume was 10 gallons per acre, with sprayer nozzle design, orientation and nozzle pressures chosen to prevent spray drift. Applications were made at first sign of cotton boll opening and at 15%, 20% and 40% open bolls.
# (§2) The experimental design used randomized plots with 1 to 4 treatment rates of test composition and from 1 to 10 replications depending on the test (sees tables below). The size of each experimental plot was about 15 m^2. Testing was performed in Texas, North Carolina, Mississippi and Georgia.
# (§3) Percent desiccation, percent defoliation, percent terminal control and percent open bolls were evaluated at 7 and 14 days after application (DAA) of the test composition. Inspection of cotton plants for insect control of armyworm larvae was performed at 2 DAA and insect damage to bolls was performed at the time of harvest
# Terminal control refers to crop response to the top-most vertical bud and shoots growth. Percent terminal control estimates the proportion of these upper-most growth structures desiccated per 100 cotton plants. Fifty cotton plants in two representative locations within a treatment plot were chosen to determine percent control. Each terminal of the 50 plants in the 2 locations was evaluated, and the total number desiccated per 100 plants was recorded as percent terminal control.
# (§4) The results, shown as the mean of the indicated number of replications, were compared with results observed in the same trials with an untreated control.
# cotton, variety D&PL 555 [2] = assay: % open bolls of cotton plants, field trial; details: 14 DAA
# Experimental: as §1, §2, §3
# Open bolls refers to the number of bolls which have opened per 100 cotton plants. Fifty cotton plants in two representative locations within a treatment plot were chosen to examine for open bolls. The percent of open bolls was calculated by dividing the number of open bolls by the total number of bolls on the plants multiplied by 100.
# as §4
# cotton, variety D&PL 555 [3] = assay: % desiccation of cotton leaves, field trial
# Experimental: as §1, §2, §3
# Desiccation refers to leaves or portions of leaves dried to debris following tissue death. […] An evaluation of the condition of leaves in the untreated check plots were observed. Then the test plots were individually evaluated. The percent of all leaves completely or partially desiccated by the test application were recorded, based upon live leaves and leaf debris within the test plot relative to foliage present in the untreated plot.
# as §4
# [4] = 20% open boll application, 0.002 lb ai/a, 14 DAA, 2 replicates
# [5] = 20% open boll application, 0.004 lb ai/a, 14 DAA, 2 replicates
# [6] = 20% open boll application, 0.006 lb ai/a, 14 DAA, 2 replicates
# [7] = 20% open boll application, 0.008 lb ai/a, 14 DAA, 2 replicates
smiles,measurement,setting,value
"CCOC(=O)C(Cl)Cc1cc(-n2nc(C)n(C(F)F)c2=O)c(F)cc1Cl (centres unmarked) [carfentrazone-ethyl, ethyl 2-chloro-3-[2-chloro-5-(4-difluoromethyl-3-methyl-5-oxo-4,5-dihydro-[1,2,4]-triazol-1-yl)-4-fluorophenyl]propionate]",% Terminal Control,"cotton, variety D&PL 555 [1]; 15% open boll application, 0.004 lb ai/a, 14 DAA, 9 replicates",63%
same,% Terminal Control,"cotton, variety D&PL 555 [1]; 15% open boll application, 0.006 lb ai/a, 14 DAA, 9 replicates",74%
same,% Terminal Control,"cotton, variety D&PL 555 [1]; 15% open boll application, 0.008 lb ai/a, 14 DAA, 9 replicates",79%
same,% Terminal Control,"cotton, variety D&PL 555 [1]; 15% open boll application, 0.01 lb ai/a, 14 DAA, 9 replicates",82%
same,% Terminal Control,"cotton, variety D&PL 555 [1]; 20% open boll application, 0.002 lb ai/a, 7 DAA, 2 replicates",50%
same,% Terminal Control,"cotton, variety D&PL 555 [1]; [4]",49%
same,% Terminal Control,"cotton, variety D&PL 555 [1]; 20% open boll application, 0.004 lb ai/a, 7 DAA, 2 replicates",67%
same,% Terminal Control,"cotton, variety D&PL 555 [1]; [5]",64%
same,% Terminal Control,"cotton, variety D&PL 555 [1]; 20% open boll application, 0.006 lb ai/a, 7 DAA, 2 replicates",66%
same,% Terminal Control,"cotton, variety D&PL 555 [1]; [6]",64%
same,% Terminal Control,"cotton, variety D&PL 555 [1]; 20% open boll application, 0.008 lb ai/a, 7 DAA, 2 replicates",60%
same,% Terminal Control,"cotton, variety D&PL 555 [1]; [7]",63%
same,% Terminal Control,"cotton, variety D&PL 555 [1]; first open boll application, 0.002 lb ai/a, 7 DAA, 3 replicates",27%
same,% Terminal Control,"cotton, variety D&PL 555 [1]; first open boll application, 0.002 lb ai/a, 14 DAA, 3 replicates",44%
same,% Terminal Control,"cotton, variety D&PL 555 [1]; first open boll application, 0.004 lb ai/a, 7 DAA, 3 replicates",46%
same,% Terminal Control,"cotton, variety D&PL 555 [1]; first open boll application, 0.004 lb ai/a, 14 DAA, 3 replicates",58%
same,% Terminal Control,"cotton, variety D&PL 555 [1]; first open boll application, 0.006 lb ai/a, 7 DAA, 3 replicates",47%
same,% Terminal Control,"cotton, variety D&PL 555 [1]; first open boll application, 0.006 lb ai/a, 14 DAA, 3 replicates",59%
same,% Terminal Control,"cotton, variety D&PL 555 [1]; first open boll application, 0.008 lb ai/a, 7 DAA, 3 replicates",50%
same,% Terminal Control,"cotton, variety D&PL 555 [1]; first open boll application, 0.008 lb ai/a, 14 DAA, 3 replicates",58%
same,% Open Bolls,"cotton, variety D&PL 555 [2]; 15% open boll application, 0.004 lb ai/a, 10 replicates",59%
same,% Open Bolls,"cotton, variety D&PL 555 [2]; 15% open boll application, 0.006 lb ai/a, 10 replicates",61%
same,% Open Bolls,"cotton, variety D&PL 555 [2]; 15% open boll application, 0.008 lb ai/a, 10 replicates",64%
same,% Open Bolls,"cotton, variety D&PL 555 [2]; 15% open boll application, 0.01 lb ai/a, 10 replicates",63%
same,% Open Bolls,"cotton, variety D&PL 555 [2]; 20% open boll application, 0.002 lb ai/a, 3 replicates",62%
same,% Open Bolls,"cotton, variety D&PL 555 [2]; 20% open boll application, 0.004 lb ai/a, 3 replicates",62%
same,% Open Bolls,"cotton, variety D&PL 555 [2]; 20% open boll application, 0.006 lb ai/a, 3 replicates",67%
same,% Open Bolls,"cotton, variety D&PL 555 [2]; 20% open boll application, 0.008 lb ai/a, 3 replicates",62%
same,% Open Bolls,"cotton, variety D&PL 555 [2]; first open boll application, 0.002 lb ai/a, 3 replicates",61%
same,% Open Bolls,"cotton, variety D&PL 555 [2]; first open boll application, 0.004 lb ai/a, 3 replicates",58%
same,% Open Bolls,"cotton, variety D&PL 555 [2]; first open boll application, 0.006 lb ai/a, 3 replicates",63%
same,% Open Bolls,"cotton, variety D&PL 555 [2]; first open boll application, 0.008 lb ai/a, 3 replicates",68%
same,% Desiccation,"cotton, variety D&PL 555 [3]; 15% open boll application, 0.004 lb ai/a, 14 DAA, 10 replicates",29%
same,% Desiccation,"cotton, variety D&PL 555 [3]; 15% open boll application, 0.006 lb ai/a, 14 DAA, 10 replicates",33%
same,% Desiccation,"cotton, variety D&PL 555 [3]; 15% open boll application, 0.008 lb ai/a, 14 DAA, 10 replicates",37%
same,% Desiccation,"cotton, variety D&PL 555 [3]; 15% open boll application, 0.01 lb ai/a, 14 DAA, 10 replicates",38%
same,% Desiccation,"cotton, variety D&PL 555 [3]; 20% open boll application, 0.002 lb ai/a, 7 DAA, 3 replicates",8%
same,% Desiccation,"cotton, variety D&PL 555 [3]; [4]",13%
same,% Desiccation,"cotton, variety D&PL 555 [3]; 20% open boll application, 0.004 lb ai/a, 7 DAA, 3 replicates",17%
same,% Desiccation,"cotton, variety D&PL 555 [3]; [5]",23%
same,% Desiccation,"cotton, variety D&PL 555 [3]; 20% open boll application, 0.006 lb ai/a, 7 DAA, 3 replicates",21%
same,% Desiccation,"cotton, variety D&PL 555 [3]; [6]",22%
same,% Desiccation,"cotton, variety D&PL 555 [3]; 20% open boll application, 0.008 lb ai/a, 7 DAA, 3 replicates",24%
same,% Desiccation,"cotton, variety D&PL 555 [3]; [7]",22%
